# In patent publication US20200405699A1, “TREATING SICKLE CELL DISEASE WITH A PYRUVATE KINASE R ACTIVATING COMPOUND” (FORMA Therapeutics, Inc., priority 2018, published 2020):
# Like-named read-outs stand apart in the source and are kept apart here.
# Assays:
# [1] = PK/PD study in wild type mice, tolerability; format: in vivo; settings: oral QD x7, both studies
# Protocol: (§1) Two pharmacokinetic (PK)/phamacodynamic (PD) studies were conducted in Balb/c mice that were administered Compound 1 once daily by oral gavage (formulated in 10% Cremophor EL/10% PG/80% DI water) for 7 days (QD×7) at doses of 0 (vehicle), 3.75, 7.5, 15, 30, 60 mg/kg (Study 1); 0 (vehicle), 7.5, 15, 30, 60, 120, or 240 mg/kg (Study 2). On the 7th day, whole blood was collected 24 hours after dosing and snap frozen. Samples were later thawed and analyzed by LC/MS for 2,3-DPG and ATP levels.
# [2] = SAD/MAD study in healthy volunteers, safety; format: in vivo, human; settings: SAD and MAD cohorts of healthy volunteers
# Source text: (§2) This is a first-in-human (FIH), Phase 1 study of Compound 1 that will characterize the safety, PK, and PD of Compound 1 after a single dose and after repeated dosing first in healthy adult volunteers and then in adolescents or adults with sickle cell disease. Initially, a dose range of Compound 1 in single ascending dose (SAD) escalation cohorts will be explored in healthy subjects. Enrollment of healthy subjects into 2-week multiple ascending dose (MAD) escalation cohorts will be initiated once the safety and PK from at least two SAD cohorts is available to inform the doses for the 2-week MAD portion of the study. The MAD cohorts will then run in parallel to the single dose cohorts. A single dose cohort is planned to understand food effects (FE) on the PK of Compound 1. […] Multiple dose studies in SCD subjects will then be initiated upon completion of MAD studies in healthy volunteers. Compound 1 will be administered in 25 mg and 100 mg tablets delivered orally. Four healthy SAD cohorts were evaluated at doses of 200, 400, 700, and 1000 mg, and four healthy MAD cohorts received 200 to 600 mg total daily doses for 14 days at QD or BID dosing (100 mg BID, 200 mg BID, 300 mg BID, and 400 mg QD). In the food effect (FE) cohort, 10 healthy subjects received 200 mg of Compound 1 QD with and without food.
# [3] = test system: 2,3-DPG levels in whole blood; experiment: PK/PD study in wild type mice, 2,3-DPG levels in blood; format: in vivo, Balb/c mice; settings: oral QD x7, doses ≥120 mg/kg (120 and 240 mg/kg), blood 24 h after dosing
# Protocol: as §1
# [4] = target: T1, wt-PKR in mature human erythrocytes (Homo sapiens, UniProt P30613); experiment: PKR activation in human red blood cells ex vivo (Biovision Pyruvate Kinase Assay); format: cell-based; settings: human RBCs
# T1 construct: evaluated in purified RBCs purchased from Research Blood Components; host or cells: purified human red blood cells from donors
# T1 sequence (P30613 whole entry): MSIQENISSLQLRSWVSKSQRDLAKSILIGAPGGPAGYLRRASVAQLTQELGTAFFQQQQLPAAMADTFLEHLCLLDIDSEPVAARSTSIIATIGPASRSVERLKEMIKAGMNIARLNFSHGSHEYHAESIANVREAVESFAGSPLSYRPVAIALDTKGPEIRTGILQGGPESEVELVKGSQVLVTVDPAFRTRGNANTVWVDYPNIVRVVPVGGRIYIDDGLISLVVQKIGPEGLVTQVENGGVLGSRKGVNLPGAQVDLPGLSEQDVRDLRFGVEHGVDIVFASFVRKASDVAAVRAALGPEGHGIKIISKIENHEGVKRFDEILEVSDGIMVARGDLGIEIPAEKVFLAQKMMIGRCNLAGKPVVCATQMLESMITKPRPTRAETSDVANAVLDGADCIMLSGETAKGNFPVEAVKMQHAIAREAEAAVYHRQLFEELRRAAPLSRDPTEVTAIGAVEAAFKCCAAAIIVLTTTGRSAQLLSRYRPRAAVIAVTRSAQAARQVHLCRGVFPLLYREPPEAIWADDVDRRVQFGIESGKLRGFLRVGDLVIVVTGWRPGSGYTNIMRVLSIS
# Protocol: The activation of wt-PKR by Compound 1 in mature human erythrocytes ex vivo was evaluated in purified RBCs purchased from Research Blood Components. Cells treated with Compound 1 for 3 hr in glucose-containing media were washed, lysed, and assayed using a Biovision Pyruvate Kinase Assay (K709-100). The assay was repeated multiple times to account for donor-to-donor variability and the relatively narrow dynamic range.
# PKR-R510Q = PKR-R510Q (Homo sapiens, UniProt P30613, R510Q); experiment: Luminescence Assay (Kinase Glo Plus), PKR R510Q; format: biochemical; settings: read-out: AC50 (PKRR510Q)
# PKR-R510Q, sequence (P30613 whole entry R510Q): as the sequence (P30613 whole entry) above, with R510Q counted along it
# Protocol: (§3) For each tested compound, the ability to activate PKR was determined using the following Luminescence Assay. The effect of phosphorylation of adenosine-5′-diphosphate (ADP) by PKR is determined by the Kinase Glo Plus Assay (Promega) in the presence or absence of FBP (D-fructose-1,6-diphosphate; BOC Sciences, CAS: 81028-91-3) as follows. Unless otherwise indicated, all reagents are purchased from Sigma-Aldrich. All reagents are prepared in buffer containing 50 mM Tris-HCl, 100 mM KCl, 5 mM MgCl2, and 0.01% Triton X100, 0.03% BSA, and 1 mM DTT. Enzyme and PEP (phosphoenolpyruvate) are added at 2× to all wells of an assay-ready plate containing serial dilutions of test compounds or DMSO vehicle. Final enzyme concentrations for PKR(wt), PKR(R510Q), and PKR(G332S) are 0.8 nM, 0.8 nM, and 10 nM respectively. Final PEP concentration is 100 μM. The Enzyme/PEP mixture is incubated with compounds for 30 minutes at RT before the assay is initiated with the addition of 2×ADP and KinaseGloPlus. Final concentration of ADP is 100 μM. […] For assays containing FBP, that reagent is added at 30 μM upon reaction initiation. Reactions are allowed to progress for 45 minutes at RT until luminescence is recorded by the BMG PHERAstar FS Multilabel Reader. The compound is tested in triplicate at concentrations ranging from 42.5 μM to 2.2 nM in 0.83% DMSO. AC50 measurements were obtained by the standard four parameter fit algorithm of ActivityBase XE Runner (max, min, slope and AC50). The AC50 value for a compound is the concentration (μM) at which the activity along the four parameter logistic curve fit is halfway between minimum and maximum activity.
# (§4) As set forth in Tables 2 and 3 below and in FIG. 1, AC50 values are defined as follows: ≤0.1 μM (+++); >0.1 μM and ≤1.0 μM (++); >1.0 μM and ≤40 μM (+); >40 μM (0).
# PKR in mouse RBCs = target: T2, PKR in mouse RBCs (Mus musculus, UniProt P53657); experiment: PKR activation in mouse red blood cells; format: cell-based
# T2 construct: Mouse RBCs were isolated fresh from whole blood using a Ficoll gradient; endogenous in cells; host or cells: mouse red blood cells isolated fresh from whole blood
# T2 sequence (P53657 whole entry): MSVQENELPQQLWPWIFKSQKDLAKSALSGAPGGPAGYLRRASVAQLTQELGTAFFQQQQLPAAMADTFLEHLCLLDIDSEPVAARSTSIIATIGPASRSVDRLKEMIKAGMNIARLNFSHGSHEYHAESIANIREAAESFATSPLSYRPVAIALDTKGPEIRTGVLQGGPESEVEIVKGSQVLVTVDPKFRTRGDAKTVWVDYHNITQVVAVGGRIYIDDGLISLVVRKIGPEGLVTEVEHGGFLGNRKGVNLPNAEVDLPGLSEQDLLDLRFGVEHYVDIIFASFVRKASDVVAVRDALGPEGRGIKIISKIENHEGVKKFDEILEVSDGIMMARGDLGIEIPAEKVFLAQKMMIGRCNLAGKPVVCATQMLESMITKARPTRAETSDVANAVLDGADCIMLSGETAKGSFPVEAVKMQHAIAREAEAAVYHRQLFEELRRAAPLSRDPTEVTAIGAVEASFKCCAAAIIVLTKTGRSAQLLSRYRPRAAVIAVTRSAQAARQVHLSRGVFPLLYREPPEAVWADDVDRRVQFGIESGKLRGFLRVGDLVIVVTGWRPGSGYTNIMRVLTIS
# Source text: Mouse RBCs were isolated fresh from whole blood using a Ficoll gradient and assayed with methods similar to those used in the human RBCs assays.
# [5] = SAD/MAD/food effect study in healthy volunteers, pharmacokinetics; format: in vivo, human
# Source text: as §2, with “orally.” for “orally. Four healthy SAD cohorts were evaluated at doses of 200, 400, 700, and 1000 mg, and four healthy MAD cohorts received 200 to 600 mg total daily doses for 14 days at QD or BID dosing (100 mg BID, 200 mg BID, 300 mg BID, and 400 mg QD). In the food effect (FE) cohort, 10 healthy subjects received 200 mg of Compound 1 QD with and without food.”
# Four healthy SAD cohorts were evaluated at doses of 200, 400, 700, and 1000 mg, and four healthy MAD cohorts received 200 to 600 mg total daily doses for 14 days at QD or BID dosing (100 mg BID, 200 mg BID, 300 mg BID, and 400 mg QD). In the food effect (FE) cohort, 10 healthy subjects received 200 mg of Compound 1 QD with and without food.
# ATP blood levels = experiment: SAD/MAD study in healthy volunteers, blood ATP levels (LC-MS/MS); format: in vivo, human; settings: MAD cohorts, 60 hours after the last dose
# Source text: This is a first-in-human (FIH), Phase 1 study of Compound 1 that will characterize the safety, PK, and PD of Compound 1 after a single dose and after repeated dosing first in healthy adult volunteers and then in adolescents or adults with sickle cell disease. Initially, a dose range of Compound 1 in single ascending dose (SAD) escalation cohorts will be explored in healthy subjects. Enrollment of healthy subjects into 2-week multiple ascending dose (MAD) escalation cohorts will be initiated once the safety and PK from at least two SAD cohorts is available to inform the doses for the 2-week MAD portion of the study. The MAD cohorts will then run in parallel to the single dose cohorts. […]
# Four healthy SAD cohorts were evaluated at doses of 200, 400, 700, and 1000 mg, and four healthy MAD cohorts received 200 to 600 mg total daily doses for 14 days at QD or BID dosing (100 mg BID, 200 mg BID, 300 mg BID, and 400 mg QD). […]
# In the MAD cohorts, the subjects' blood ATP levels were measured on day 14 by a qualified LC-MS/MS method for the quantitation of ATP in blood. […] Table 14 reports the median percentage change in blood ATP levels, relative to baseline, measured over time after the first dose on day 14 in healthy volunteers who received daily doses of Compound 1 (100 mg BID, or 200 mg BID) or placebo for 14 days. […]
# PKR(G332S) = PKR(G332S) (Homo sapiens, UniProt P30613, G332S); experiment: Luminescence Assay (Kinase Glo Plus), PKR G332S; format: biochemical; settings: read-out: AC50 (PKRG332S)
# PKR(G332S), sequence (P30613 whole entry G332S): as the sequence (P30613 whole entry) above, with G332S counted along it
# Protocol: as §3, §4
# [6] = PK/PD study in wild type mice, exposure; format: in vivo, Balb/c mice; settings: Balb/c, mouse, in vivo, oral, read-out: AUC0-24
# Protocol: as §1
smiles,measurement,setting,value
"O=C([C@H](CO)c1ccccc1)N1CC2=C(C1)CN(S(=O)(=O)c1cnc3c(c1)OCCO3)C2 (single isomer, unassigned) [Compound 1]",Adverse clinical signs,[1],No adverse clinical signs were observed
same,Body weight change compared with vehicle group,[1],no differences in body weight change
same,Serious adverse events / AEs leading to withdrawal,[2],No serious adverse events (SAEs) or AEs leading to withdrawal were reported
same,"Reduction of 2,3-DPG levels",[3],> 30%
same,EC50,"[4]; 3 hr treatment, individual replicates",< 50 nM
same,"Max-Min (%), Mean (mean maximum activation increase)",[4]; mean of replicates,<100%
same,Emax,"[4]; mean of replicates, read-out: Max-Min (%), Mean (mean maximum activation increase)",< 100%
same,AC50,PKR-R510Q,≤ 100 nM
same,EC50,"PKR in mouse RBCs; individual replicates, read-out: EC50",< 125 nM
same,EC50,"PKR in mouse RBCs; mean of replicates, read-out: EC50 (nM), Mean",< 125 nM
same,"PK linearity, multiple doses","[5]; 100-300 mg BID, 400 mg QD",linear PK
same,Tmax,"[5]; human, plasma, healthy volunteers, oral, postdose, read-out: Median Tmax",1 h
same,Dose dependence of single dose exposure,[5]; single doses ≥700 mg,greater than dose-proportional
same,ATP levels relative to baseline after last dose,ATP blood levels,remained elevated
same,AC50,PKR(G332S),100 to 1000 nM
same,AUC(0-t),[6]; doses ≥60 mg/kg,> 4000 ng·h/mL
same,AUC(0-t),[6]; doses ≥120 mg/kg,> 5200 ng·h/mL
